tested on: murine L1210 leukemia cells; assay: Antitumor effect on murine L1210 leukemia cell (intraperitoneally inoculated mice, increase in life-span); format: in vivo, murine; male CDF1 mice; settings: 5 administrations, from linear regression line
Text: (§1) Murine L1210 leukemia cells (1×10^5 cells) were inoculated peritoneally into six-week-old male CDF1 mice.
(§2) T: mean survival days of drug-treated group
(§3) C: mean survival days of untreated group
(§4) In the table, ILSmax means the maximum ILS value (%) within the set doses, and its corresponding dose (mg/kg) is shown in parenthesis.

| Compound | ILS50 (a dose which shows 50% of the ILS value by 5 administrations) [mg/kg] |
| --- | --- |
| N.N.[Cl][Pt][Cl] [Cisplatin, cisplatin, reference compound] | 1.3 |
| O=C([O][Pt]1([Cl])[NH]C2CCCCC2[NH]1)C1CCCC1 (stereo not drawn) [Compound 16, chloro(cyclopentanecarboxylato)(trans-1-1,2-diaminocyclohexane)platinum(II)] | 5.6 |
| chloro (cyclopropanecarboxylato) (trans-1-1,2-diaminocyclohexane)platinum(II) [Compound 15] | 1.2 |
| chloro(1-lactato)(trans-1-1,2-diaminocyclohexane)platinum(II) [Compound 17] | < 1.0 |
| chloro(propionato)(trans-1-1,2-diaminocyclohexane)platinum(II) [Compound 14] | 1.0 |

same assay, conditions: LD50/ILS50

| Compound | TI (therapeutic index LD50/ILS50) |
| --- | --- |
| O=C([O][Pt]1([Cl])[NH]C2CCCCC2[NH]1)C1CCCC1 (stereo not drawn) [Compound 16, chloro(cyclopentanecarboxylato)(trans-1-1,2-diaminocyclohexane)platinum(II)] | 31.6 |
| chloro (cyclopropanecarboxylato) (trans-1-1,2-diaminocyclohexane)platinum(II) [Compound 15] | 26.1 |
| chloro(1-lactato)(trans-1-1,2-diaminocyclohexane)platinum(II) [Compound 17] | > 44.3 |
| chloro(propionato)(trans-1-1,2-diaminocyclohexane)platinum(II) [Compound 14] | 44.3 |

same assay, conditions: dose shown in parenthesis

| Compound | dose corresponding to ILSmax [mg/kg] |
| --- | --- |
| N.N.[Cl][Pt][Cl] [Cisplatin, cisplatin, reference compound] | 4 |
| O=C([O][Pt]1([Cl])[NH]C2CCCCC2[NH]1)C1CCCC1 (stereo not drawn) [Compound 16, chloro(cyclopentanecarboxylato)(trans-1-1,2-diaminocyclohexane)platinum(II)] | 32 |
| chloro (cyclopropanecarboxylato) (trans-1-1,2-diaminocyclohexane)platinum(II) [Compound 15] | 8 |
| chloro(1-lactato)(trans-1-1,2-diaminocyclohexane)platinum(II) [Compound 17] | 8 |
| chloro(propionato)(trans-1-1,2-diaminocyclohexane)platinum(II) [Compound 14] | 8 |

same assay, conditions: male CDF1 mice, observed for 30 days

| Compound | ILSmax (maximum ILS value within the set doses) [%] |
| --- | --- |
| N.N.[Cl][Pt][Cl] [Cisplatin, cisplatin, reference compound] | 97.5 |
| O=C([O][Pt]1([Cl])[NH]C2CCCCC2[NH]1)C1CCCC1 (stereo not drawn) [Compound 16, chloro(cyclopentanecarboxylato)(trans-1-1,2-diaminocyclohexane)platinum(II)] | > 221.3 |
| chloro (cyclopropanecarboxylato) (trans-1-1,2-diaminocyclohexane)platinum(II) [Compound 15] | > 166.3 |
| chloro(1-lactato)(trans-1-1,2-diaminocyclohexane)platinum(II) [Compound 17] | > 190.0 |
| chloro(propionato)(trans-1-1,2-diaminocyclohexane)platinum(II) [Compound 14] | 146.3 |

tested on: cisplatin-resistant murine L1210 leukemia cell (L1210/DDP); assay: Antitumor effect on cisplatin-resistant murine L1210 leukemia cell (L1210/DDP), increase in life-span; format: in vivo, murine; male CDF1 mice; settings: 5 administrations, ND: not detectable
Text: as §1, §2, §3, §4
Antitumor effect on cisplatin-resistant murine L1210 leukemia cell:
The above test of the antitumor effect on murine leukemia cells was repeated except that cisplatin-resistant murine L1210 leukemia cell (L1210/DDP) was used instead of murine L1210 leukemia cell, with the results shown in Table 2.

| Compound | ILS50 (a dose which shows 50% of the ILS value by 5 administrations) [mg/kg] |
| --- | --- |
| O=C([O][Pt]1([Cl])[NH]C2CCCCC2[NH]1)C1CCCC1 (stereo not drawn) [Compound 16, chloro(cyclopentanecarboxylato)(trans-1-1,2-diaminocyclohexane)platinum(II)] | < 4.0 |
| chloro (cyclopropanecarboxylato) (trans-1-1,2-diaminocyclohexane)platinum(II) [Compound 15] | < 1.0 |
| chloro(1-lactato)(trans-1-1,2-diaminocyclohexane)platinum(II) [Compound 17] | < 1.0 |
| chloro(propionato)(trans-1-1,2-diaminocyclohexane)platinum(II) [Compound 14] | < 1.0 |

same assay, conditions: LD50/ILS50, ND: not detectable

| Compound | TI (therapeutic index LD50/ILS50) |
| --- | --- |
| O=C([O][Pt]1([Cl])[NH]C2CCCCC2[NH]1)C1CCCC1 (stereo not drawn) [Compound 16, chloro(cyclopentanecarboxylato)(trans-1-1,2-diaminocyclohexane)platinum(II)] | > 44.2 |
| chloro (cyclopropanecarboxylato) (trans-1-1,2-diaminocyclohexane)platinum(II) [Compound 15] | > 31.3 |
| chloro(1-lactato)(trans-1-1,2-diaminocyclohexane)platinum(II) [Compound 17] | > 44.3 |
| chloro(propionato)(trans-1-1,2-diaminocyclohexane)platinum(II) [Compound 14] | > 44.3 |

same assay, conditions: dose(s) shown in parenthesis

| Compound | dose corresponding to ILSmax |
| --- | --- |
| N.N.[Cl][Pt][Cl] [Cisplatin, cisplatin, reference compound] | 4 mg/kg |
| O=C([O][Pt]1([Cl])[NH]C2CCCCC2[NH]1)C1CCCC1 (stereo not drawn) [Compound 16, chloro(cyclopentanecarboxylato)(trans-1-1,2-diaminocyclohexane)platinum(II)] | 4,8 mg/kg |
| chloro (cyclopropanecarboxylato) (trans-1-1,2-diaminocyclohexane)platinum(II) [Compound 15] | 1,2 mg/kg |
| chloro(1-lactato)(trans-1-1,2-diaminocyclohexane)platinum(II) [Compound 17] | 1,2 mg/kg |

same assay, conditions: male CDF1 mice, observed for 30 days

| Compound | ILSmax (maximum ILS value within the set doses) [%] |
| --- | --- |
| N.N.[Cl][Pt][Cl] [Cisplatin, cisplatin, reference compound] | 1.0 |
| O=C([O][Pt]1([Cl])[NH]C2CCCCC2[NH]1)C1CCCC1 (stereo not drawn) [Compound 16, chloro(cyclopentanecarboxylato)(trans-1-1,2-diaminocyclohexane)platinum(II)] | > 194.1 |
| chloro (cyclopropanecarboxylato) (trans-1-1,2-diaminocyclohexane)platinum(II) [Compound 15] | > 194.1 |
| chloro(1-lactato)(trans-1-1,2-diaminocyclohexane)platinum(II) [Compound 17] | > 194.1 |
| chloro(propionato)(trans-1-1,2-diaminocyclohexane)platinum(II) [Compound 14] | > 194.1 |

tested on: male CDF1 mice; assay: 50% lethal dose by single intraperitoneal administration; format: in vivo; settings: not given
Text: as §4

| Compound | LD50 [mg/kg] |
| --- | --- |
| O=C([O][Pt]1([Cl])[NH]C2CCCCC2[NH]1)C1CCCC1 (stereo not drawn) [Compound 16, chloro(cyclopentanecarboxylato)(trans-1-1,2-diaminocyclohexane)platinum(II)] | 176.8 |
| chloro (cyclopropanecarboxylato) (trans-1-1,2-diaminocyclohexane)platinum(II) [Compound 15] | 31.3 |
| chloro(1-lactato)(trans-1-1,2-diaminocyclohexane)platinum(II) [Compound 17] | 44.3 |
| chloro(propionato)(trans-1-1,2-diaminocyclohexane)platinum(II) [Compound 14] | 44.3 |
